Values joined by “and” are separate entries in the source; they are usually repeats but may differ in a detail not shown here. Equal values may be shown once. Read-outs that look alike come from different tables or passages of the source.
Columns and labels:
[1] = molecular target: mouse heart mitochondrial membranes (complex I) (Mus musculus, UniProt P03888+P03899+Q91WD5+Q9DC70); test: NADH:O2 oxidoreduction by mouse heart mitochondrial membranes; assay type: biochemical; conditions: for LogIC50 (best fit value): log of IC50 in mM
Chain of mouse heart mitochondrial membranes (complex I) (P03899 whole entry): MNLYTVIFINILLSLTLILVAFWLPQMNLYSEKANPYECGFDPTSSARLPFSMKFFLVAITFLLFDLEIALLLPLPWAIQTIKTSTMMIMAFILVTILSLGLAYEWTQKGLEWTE
Chain of mouse heart mitochondrial membranes (complex I) (P03888 whole entry): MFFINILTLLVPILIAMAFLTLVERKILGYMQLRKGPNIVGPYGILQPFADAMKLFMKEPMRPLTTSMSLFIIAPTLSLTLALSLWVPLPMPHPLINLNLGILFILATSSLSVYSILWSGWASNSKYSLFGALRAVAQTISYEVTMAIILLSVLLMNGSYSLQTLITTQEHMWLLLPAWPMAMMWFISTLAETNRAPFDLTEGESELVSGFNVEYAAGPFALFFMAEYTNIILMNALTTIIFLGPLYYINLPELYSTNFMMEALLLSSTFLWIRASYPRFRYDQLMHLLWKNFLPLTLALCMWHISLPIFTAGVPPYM
Chain of mouse heart mitochondrial membranes (complex I) (Q9DC70 36-224): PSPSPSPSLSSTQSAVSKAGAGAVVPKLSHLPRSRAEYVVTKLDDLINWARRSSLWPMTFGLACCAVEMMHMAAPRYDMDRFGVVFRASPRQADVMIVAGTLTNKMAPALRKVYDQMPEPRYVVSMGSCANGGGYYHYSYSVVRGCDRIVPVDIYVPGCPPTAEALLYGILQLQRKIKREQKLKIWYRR
Chain of mouse heart mitochondrial membranes (complex I) (Q91WD5 34-463): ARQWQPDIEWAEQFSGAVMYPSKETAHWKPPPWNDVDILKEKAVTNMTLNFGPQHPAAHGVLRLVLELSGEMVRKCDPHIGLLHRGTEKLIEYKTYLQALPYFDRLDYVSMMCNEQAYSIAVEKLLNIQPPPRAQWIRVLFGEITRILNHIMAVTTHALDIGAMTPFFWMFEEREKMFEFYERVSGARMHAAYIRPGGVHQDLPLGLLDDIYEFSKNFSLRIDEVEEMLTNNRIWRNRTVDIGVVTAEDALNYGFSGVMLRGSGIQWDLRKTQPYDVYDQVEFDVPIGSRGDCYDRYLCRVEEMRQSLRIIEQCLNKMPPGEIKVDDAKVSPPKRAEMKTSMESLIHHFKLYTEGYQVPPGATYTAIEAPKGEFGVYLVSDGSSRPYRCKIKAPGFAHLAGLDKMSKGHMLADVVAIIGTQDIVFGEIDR
Summary of the method: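 Spectrophotometric NADH oxidation (ε340–380 4.81 mM^−1 cm^−1) at 32 °C. Membranes at 5 μg mL^−1 in 10 mM Tris-HCl pH 7.4, 250 mM sucrose, 200 μM NADH, 0.15 mM cytochrome c; purified complex I at 0.5 μg mL^−1 in 20 mM Tris-HCl pH 7.2, 0.15 % asolectin/CHAPS, 200 μM each decylubiquinone and NADH. IC50 from dose-effect fit, Hill slope fixed at 1 for purified enzyme.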

143B cells = test: Rotenone-sensitive oxygen consumption rate in intact 143B cells; assay type: cell-based, human; conditions: for rotenone sensitive OCR after 6 hours of biguanide exposure, % control, average / rotenone sensitive OCR after 6 hours of biguanide exposure, average: 143B cells, biguanide at IC50/10; for rotenone sensitive OCR after 6 hours of biguanide exposure, average: OCR normalized to OCR immediately prior to biguanide addition
Experimental: (§1) 143B (CRL-8303 from ATCC), HepG2 (85011430 from The Health Protection Agency), and MDBK (CCL-22 from ATCC) cells were grown on Dulbecco’s modified Eagle’s medium (DMEM) supplemented with 10 % fetal bovine serum (FBS, Thermo Fisher Scientific) at 37 °C in 5 % CO2. All cells were confirmed as negative for mycoplasma.
(§2) Oxygen consumption rates (OCRs) were measured using a Seahorse XF96 extracellular flux analyzer at 37 °C. For intact cell measurements, 1.4 × 10^4 143B, HepG2, or MDBK cells were plated (per well) in DMEM containing 10 % FBS into Seahorse Bioscience Inc. XF96 plates and incubated for ~12 h at 37 °C in 5 % CO2. Then, the medium was exchanged for assay buffer containing DMEM, 4.5 g L^−1 glucose, 1 mM pyruvate, 32 mM NaCl, 2 mM GlutaMAX, 15 mg L^−1 phenol red, and 20 mM HEPES (pH 7.4 at 37 °C) and the cells placed in a CO2-free incubator at 37 °C for 30 min. Basal oxygen consumption rates were established before the addition of biguanides at one-tenth of their IC50 (IC50/10), and followed for ~ 6 h before the addition of rotenone (2 μM).
(§3) Rotenone-sensitive OCRs were calculated by subtracting the rotenone-insensitive rates (determined at the end of the experiment). OCRs were normalized by dividing by the OCR recorded immediately prior to the addition of biguanide. For rate of uptake calculations, the OCRs at time points after biguanide addition were divided by the OCRs at the same time points in control experiments. Data from wells with failed port injections were excluded from the analyses. The respiratory control ratio (RCR) values (state III versus state IV respiration) were ~11 and ~6 for permeabilized MDBK and 143B cells, respectively.

HepG2 cells = test: Rotenone-sensitive oxygen consumption rate in intact HepG2 cells; assay type: cell-based, human; conditions: for rotenone sensitive OCR after 6 hours of biguanide exposure, % control, average / rotenone sensitive OCR after 6 hours of biguanide exposure, average: HEPG2 cells, biguanide at IC50/10; for rotenone sensitive OCR after 6 hours of biguanide exposure, average: OCR normalized to OCR immediately prior to biguanide addition
Experimental: as §1, §2, §3

MDBK cells = test: Rotenone-sensitive oxygen consumption rate in intact MDBK cells; assay type: cell-based, Bos taurus; set-up: key to rotenone sensitive OCR after 40 mins of biguanide exposure / rotenone sensitive OCR after 40 mins of biguanide exposure, average: % of OCR recorded immediately before biguanide addition; conditions: biguanide at IC50/10; for rotenone sensitive OCR after 6 hours of biguanide exposure, % control, average / rotenone sensitive OCR after 6 hours of biguanide exposure, average: MDBK cells; for rotenone sensitive OCR after 6 hours of biguanide exposure, average: OCR normalized to OCR immediately prior to biguanide addition; for rotenone sensitive OCR after 40 mins of biguanide exposure, % control, average / rotenone sensitive OCR after 40 mins of biguanide exposure, average / rotenone sensitive OCR after 40 mins of biguanide exposure / rotenone sensitive OCR after 40 mins of biguanide exposure, % control: MDBK intact cells; for rotenone sensitive OCR after 40 mins of biguanide exposure, % control, average / rotenone sensitive OCR after 40 mins of biguanide exposure, average: average of replicates; for rotenone sensitive OCR after 40 mins of biguanide exposure / rotenone sensitive OCR after 40 mins of biguanide exposure, % control: individual replicates
Experimental: as §1, §2, §3

[2] = test system: acetyl-coA carboxylase (phospho-Ser79); test: AMPK activation, western blot of phospho-acetyl-coA carboxylase in MDBK cells; assay type: cell-based, Bos taurus; conditions: for ACC, average normalised to control: Averages of experiments 1-3, 18 hours; for p-ACC: band intensity
Experimental: MDBK cells were seeded at 1 × 10^6 cells per 6 cm dish in DMEM containing 10 % FBS. […] After 18 h cells were harvested by a rapid lysis procedure: cells were rinsed with PBS, then lysed using ice-cold buffer containing 50 mM HEPES, 1 mM EDTA, 10 % glycerol, 50 mM NaF, 5 mM sodium pyrophosphate, 1 % Triton-X100, 1 mM dithiothreitol (DTT), and a protease inhibitor cocktail (Roche). The cell lysate was centrifuged at 14,000 × g for 20 min at 4 °C and the protein concentration of the supernatant determined by bicinchoninic acid assay. The lysate was analyzed using Novex 3–12 % bis-Tris gels run in 3-(N-morpholino)propanesulfonic acid (MOPS) buffer (20 μg of protein per lane) followed by transfer to low fluorescence polyvinylidene fluoride membranes by wet transfer. Primary rabbit antibodies for AMPK-β (57C12), AMPK-α (phospho-Thr172) (40H9), and acetyl-coA carboxylase (phospho-Ser79) (Cell Signaling Technology) were incubated overnight with the membrane (1:1000 dilution) in Odyssey blocking buffer at 4 °C. A fluorescent secondary antibody was used (IRDYE800CW from LI-COR Biosciences, 1:20,000 dilution) with a LI-COR Odyssey imaging system.

[3] = read-out: IC50 (best fit value), Prism variable slope fit, Bottom 0, Top 100

| Structure (SMILES) | HillSlope (best fit value) ([1]; Prism variable slope fit) | LogIC50 (best fit value) ([1]; Prism variable slope fit) | rotenone sensitive OCR after 6 hours of biguanide exposure, % control, average (143B cells) | rotenone sensitive OCR after 6 hours of biguanide exposure, average (143B cells) | rotenone sensitive OCR after 6 hours of biguanide exposure, % control, average (HepG2 cells) | rotenone sensitive OCR after 6 hours of biguanide exposure, average (HepG2 cells) | rotenone sensitive OCR after 6 hours of biguanide exposure, % control, average (MDBK cells) | rotenone sensitive OCR after 6 hours of biguanide exposure, average (MDBK cells) | rotenone sensitive OCR after 40 mins of biguanide exposure, % control, average (MDBK cells) | rotenone sensitive OCR after 40 mins of biguanide exposure, average (MDBK cells) | rotenone sensitive OCR after 40 mins of biguanide exposure (MDBK cells) | rotenone sensitive OCR after 40 mins of biguanide exposure, % control (MDBK cells) | ACC, average normalised to control [2] | p-ACC / AMPK beta ([2]; Experiment 1, 18 hours) | p-ACC / AMPK beta normalised to control ([2]; Experiment 1, 18 hours) | p-ACC ([2]; Experiment 1, 18 hours) | p-ACC / AMPK beta ([2]; Experiment 2, 18 hours) | p-ACC / AMPK beta normalised to control ([2]; Experiment 2, 18 hours) | p-ACC ([2]; Experiment 2, 18 hours) | p-ACC / AMPK beta ([2]; Experiment 3, 18 hours) | further results |
| --- | --- | --- | --- | --- | --- | --- | --- | --- | --- | --- | --- | --- | --- | --- | --- | --- | --- | --- | --- | --- | --- |
| CC(C)N=C(N)N=C(N)NC(C)C [compound 5, N-(propan-2-yl)-1-3-(propan-2-yl)carbamimidamidomethanimidamide] | -1.037 | -0.5351 | 102.76 % control | 120.45 | 88.37 % control | 91.14 | 95.30 % control | 95.59 | 97.92 % control | 99.64 | 98.03 and 101.32 and 101.34 and 98.05 and 98.68 and 101.35 and 98.70 | 96.34 % control and 99.57 % control and 99.60 % control and 96.36 % control and 96.98 % control and 99.61 % control and 97.00 % control | 1.36 | 0.27 | 1.41 | 131 | 0.23 | 1.44 | 70.3 | 0.36 | IC50 ([1]; Prism variable slope fit, Bottom 0, Top 100, read-out: IC50 (best fit value)): 292 µM; inhibition of rotenone-sensitive respiration (in words) (143B cells; intact 143B cells, biguanide at IC50/10, monitored for 6 h): do not; inhibition of rotenone-sensitive respiration (in words) (HepG2 cells; intact HepG2 cells, biguanide at IC50/10, monitored for 6 h): do not; p-ACC / AMPK beta normalised to control ([2]; Experiment 3, 18 hours): 1.22; p-ACC ([2]; Experiment 3, 18 hours): 64.6 |
| [H]/N=C(/N)N/C(=N/[H])NCCc1ccccc1 [phenformin, reference compound] | -0.7733 | -0.09624 | 9.47 % control | 11.10 | 1.73 % control | 1.79 | 42.78 % control | 42.91 | 95.24 % control | 96.91 | 97.35 and 95.76 and 94.48 and 101.29 and 95.15 and 97.44 | 95.67 % control and 94.11 % control and 92.85 % control and 99.55 % control and 93.51 % control and 95.76 % control | 7.37 | 1.27 | 6.56 | 586 | 1.60 | 9.93 | 598 | 1.68 | remaining activity at 130 µM ([1]; inhibitor 0.13 mM, read-out: average % (rate, % of no-inhibitor control)): 80.6%; remaining activity at 250 µM ([1]; inhibitor 0.25 mM, read-out: average % (rate, % of no-inhibitor control)): 70.4%; remaining activity at 500 µM ([1]; inhibitor 0.50 mM, read-out: average % (rate, % of no-inhibitor control)): 59.3%; remaining activity at 1000 µM ([1]; inhibitor 1.00 mM, read-out: average % (rate, % of no-inhibitor control)): 46.6%; remaining activity at 2000 µM ([1]; inhibitor 2.00 mM, read-out: average % (rate, % of no-inhibitor control)): 33.2%; remaining activity at 5000 µM ([1]; inhibitor 5.00 mM, read-out: average % (rate, % of no-inhibitor control)): 18.7%; remaining activity at 10000 µM ([1]; inhibitor 10.00 mM, read-out: average % (rate, % of no-inhibitor control)): 12.3%; IC50 [1, 3]: 801 µM; p-ACC / AMPK beta normalised to control ([2]; Experiment 3, 18 hours): 5.62; p-ACC ([2]; Experiment 3, 18 hours): 404 |
| [H]/N=C(\N/C(=N/[H])Nc1ccc(Cl)cc1)NC(C)C [proguanil, reference compound] | -0.7979 | -1.959 | 94.32 % control | 110.56 | 93.06 % control | 95.98 | 89.87 % control | 90.15 | 96.96 % control | 98.65 | 102.33 and 100.74 (2×) and 97.32 and 96.18 and 94.63 | 100.56 % control and 99.00 % control and 99.01 % control and 95.64 % control and 94.52 % control and 93.00 % control | 1.76 | 0.34 | 1.73 | 161 | 0.32 | 1.97 | 112 | 0.47 | IC50 [1, 3]: 11 µM; p-ACC / AMPK beta normalised to control ([2]; Experiment 3, 18 hours): 1.56; p-ACC ([2]; Experiment 3, 18 hours): 91.3 |
